Measurements taken from ChEMBL document CHEMBL3885881, “DrugMatrix”.

Species: Rattus norvegicus
Assay: DrugMatrix - Regimen: Daily Repeat
Assay type: toxicity, organism-based, Sprague-Dawley
Set-up: regimen Daily Repeat, gender Male, age 6-8 weeks
Conditions: in vivo, po, route oral GAVAGE, vehicle .5 % CMC; for ABSOLUTE BASOPHIL / ABSOLUTE EOSINOPHIL / ABSOLUTE LYMPHOCYTE / ABSOLUTE MONOCYTE / ABSOLUTE SEGMENTED NEUTROPHIL / BASOPHIL / EOSINOPHIL / ERYTHROCYTE COUNT / HEMATOCRIT / HEMOGLOBIN / LEUKOCYTE COUNT / LYMPHOCYTE / MEAN CORPUSCULAR HEMOGLOBIN / MEAN CORPUSCULAR HEMOGLOBIN CONCENTRATION / MEAN CORPUSCULAR VOLUME / MONOCYTE / NEUTROPHIL / NUCLEATED RED BLOOD CELLS / PLATELET COUNT: tissue Blood; for ALANINE AMINOTRANSFERASE / ALBUMIN / ALKALINE PHOSPHATASE / ASPARTATE AMINOTRANSFERASE / BLOOD UREA NITROGEN / CARBON DIOXIDE / CHLORIDE / CHOLESTEROL / CREATINE PHOSPHOKINASE / CREATININE / GLUCOSE / LACTATE DEHYDROGENASE / LIPASE / PHOSPHORUS / POTASSIUM / SODIUM / TOTAL BILIRUBIN / TOTAL PROTEIN / URIC ACID: tissue Plasma
[1] = 0 mg/kg, 72 h, dose level Control, time 3 day
[2] = 0 mg/kg, 120 h, dose level Control, time 5 day
[3] = 200 mg/kg, 72 h, dose level Low, time 3 day

CCn1cc(C(=O)O)c(=O)c2cc(F)c(N3CCNCC3)cc21 [NORFLOXACIN]
ABSOLUTE BASOPHIL [1]: 0 CELLS/uL
ABSOLUTE EOSINOPHIL [1]: 0 CELLS/uL
ABSOLUTE LYMPHOCYTE [1]: 12269.67 CELLS/uL
ABSOLUTE MONOCYTE [1]: 160.33 CELLS/uL
ABSOLUTE SEGMENTED NEUTROPHIL [1]: 970 CELLS/uL
BASOPHIL [1]: 0%
EOSINOPHIL [1]: 0%
ERYTHROCYTE COUNT [1]: 5.76 x10E6/uL
HEMATOCRIT [1]: 36.57%
HEMOGLOBIN [1]: 14.22 G/DL
LEUKOCYTE COUNT [1]: 13.4 x10E3/uL
LYMPHOCYTE [1]: 91.67%
MEAN CORPUSCULAR HEMOGLOBIN [1]: 24.67 pg
MEAN CORPUSCULAR HEMOGLOBIN CONCENTRATION [1]: 38.85 G/DL
MEAN CORPUSCULAR VOLUME [1]: 63.52 fL
MONOCYTE [1]: 1.17%
NEUTROPHIL [1]: 7.17%
NUCLEATED RED BLOOD CELLS [1]: 0.33 /100WBC
PLATELET COUNT [1]: 1250.83 x10E3/uL
ALANINE AMINOTRANSFERASE [1]: 49.17 u/L
ALBUMIN [1]: 4.33 G/DL
ALKALINE PHOSPHATASE [1]: 378.5 u/L
ASPARTATE AMINOTRANSFERASE [1]: 82.17 u/L
BLOOD UREA NITROGEN [1]: 15 mg/dL
CARBON DIOXIDE [1]: 34.33 mmol/L
CHLORIDE [1]: 99.17 MEQ/L
CHOLESTEROL [1]: 71.17 mg/dL
CREATINE PHOSPHOKINASE [1]: 258.67 u/L
CREATININE [1]: 0.18 mg/dL
GLUCOSE [1]: 142.67 mg/dL
LACTATE DEHYDROGENASE [1]: 154.33 u/L
LIPASE [1]: 9 u/L
PHOSPHORUS [1]: 11.67 mg/dL
POTASSIUM [1]: 7.13 MEQ/L
SODIUM [1]: 142.22 MEQ/L
TOTAL BILIRUBIN [1]: 0.18 mg/dL
TOTAL PROTEIN [1]: 5.77 G/DL
URIC ACID [1]: 1.55 mg/dL
ABSOLUTE BASOPHIL [2]: 0 CELLS/uL
ABSOLUTE EOSINOPHIL [2]: 23.33 CELLS/uL
ABSOLUTE LYMPHOCYTE [2]: 14943.67 CELLS/uL
ABSOLUTE MONOCYTE [2]: 32 CELLS/uL
ABSOLUTE SEGMENTED NEUTROPHIL [2]: 1084.33 CELLS/uL
BASOPHIL [2]: 0%
EOSINOPHIL [2]: 0.17%
ERYTHROCYTE COUNT [2]: 5.71 x10E6/uL
HEMATOCRIT [2]: 35.28%
HEMOGLOBIN [2]: 14.27 G/DL
LEUKOCYTE COUNT [2]: 16.08 x10E3/uL
LYMPHOCYTE [2]: 93%
MEAN CORPUSCULAR HEMOGLOBIN [2]: 25.02 pg
MEAN CORPUSCULAR HEMOGLOBIN CONCENTRATION [2]: 40.43 G/DL
MEAN CORPUSCULAR VOLUME [2]: 61.82 fL
MONOCYTE [2]: 0.17%
NEUTROPHIL [2]: 6.67%
NUCLEATED RED BLOOD CELLS [2]: 0.33 /100WBC
PLATELET COUNT [2]: 1274 x10E3/uL
ALANINE AMINOTRANSFERASE [2]: 54.17 u/L
ALBUMIN [2]: 4.22 G/DL
ALKALINE PHOSPHATASE [2]: 373.17 u/L
ASPARTATE AMINOTRANSFERASE [2]: 81.83 u/L
BLOOD UREA NITROGEN [2]: 16.67 mg/dL
CARBON DIOXIDE [2]: 30.33 mmol/L
CHLORIDE [2]: 99 MEQ/L
CHOLESTEROL [2]: 71 mg/dL
CREATINE PHOSPHOKINASE [2]: 273.5 u/L
CREATININE [2]: 0.22 mg/dL
GLUCOSE [2]: 141.83 mg/dL
LACTATE DEHYDROGENASE [2]: 153.67 u/L
LIPASE [2]: 10.33 u/L
PHOSPHORUS [2]: 11.38 mg/dL
POTASSIUM [2]: 7.08 MEQ/L
SODIUM [2]: 142.75 MEQ/L
TOTAL BILIRUBIN [2]: 0.18 mg/dL
TOTAL PROTEIN [2]: 6.1 G/DL
URIC ACID [2]: 1.67 mg/dL
ABSOLUTE BASOPHIL [3]: 0 CELLS/uL
ABSOLUTE EOSINOPHIL [3]: 0 CELLS/uL
ABSOLUTE LYMPHOCYTE [3]: 11949 CELLS/uL
ABSOLUTE MONOCYTE [3]: 111 CELLS/uL
ABSOLUTE SEGMENTED NEUTROPHIL [3]: 1006.67 CELLS/uL
BASOPHIL [3]: 0%
EOSINOPHIL [3]: 0%
ERYTHROCYTE COUNT [3]: 5.6 x10E6/uL
HEMATOCRIT [3]: 36.17%
HEMOGLOBIN [3]: 14.13 G/DL
LEUKOCYTE COUNT [3]: 13.07 x10E3/uL
LYMPHOCYTE [3]: 91.67%
MEAN CORPUSCULAR HEMOGLOBIN [3]: 25.27 pg
MEAN CORPUSCULAR HEMOGLOBIN CONCENTRATION [3]: 39.07 G/DL
MEAN CORPUSCULAR VOLUME [3]: 64.63 fL
MONOCYTE [3]: 1%
NEUTROPHIL [3]: 7.33%
NUCLEATED RED BLOOD CELLS [3]: 0 /100WBC
PLATELET COUNT [3]: 1470.67 x10E3/uL
ALANINE AMINOTRANSFERASE [3]: 63.33 u/L
ALBUMIN [3]: 4.33 G/DL
ALKALINE PHOSPHATASE [3]: 468 u/L
ASPARTATE AMINOTRANSFERASE [3]: 89 u/L
BLOOD UREA NITROGEN [3]: 13.67 mg/dL
CARBON DIOXIDE [3]: 28 mmol/L
CHLORIDE [3]: 102 MEQ/L
CHOLESTEROL [3]: 54.33 mg/dL
CREATINE PHOSPHOKINASE [3]: 294 u/L
CREATININE [3]: 0.26 mg/dL
GLUCOSE [3]: 137.33 mg/dL
LACTATE DEHYDROGENASE [3]: 260.67 u/L
LIPASE [3]: 10 u/L
PHOSPHORUS [3]: 13.5 mg/dL
POTASSIUM [3]: 6.81 MEQ/L
SODIUM [3]: 146.4 MEQ/L
TOTAL BILIRUBIN [3]: 0.23 mg/dL
TOTAL PROTEIN [3]: 6 G/DL
URIC ACID [3]: 2.13 mg/dL
